Assay results: patent US10767187B2 (The State of Israel, Ministry of Agriculture & Rural …, priority 2016, dated 2020)

Legend:
[1] = biological target: T1, MdPh-4′-OGT (Malus domestica, UniProt A7MAS5); assay: Substrate specificity, sugar donor and cation dependence of purified recombinant MdPh-4′-OGT; assay type: biochemical, Malus x domestica; settings: 50 μM substrate, 2 mM UDP-glucose, 500 ng enzyme, 1 hour, pH 7.5; LC-MS
T1 construct: made in house; host or cells: E. coli BL21 (DE3)
T1 sequence (A7MAS5 1-481): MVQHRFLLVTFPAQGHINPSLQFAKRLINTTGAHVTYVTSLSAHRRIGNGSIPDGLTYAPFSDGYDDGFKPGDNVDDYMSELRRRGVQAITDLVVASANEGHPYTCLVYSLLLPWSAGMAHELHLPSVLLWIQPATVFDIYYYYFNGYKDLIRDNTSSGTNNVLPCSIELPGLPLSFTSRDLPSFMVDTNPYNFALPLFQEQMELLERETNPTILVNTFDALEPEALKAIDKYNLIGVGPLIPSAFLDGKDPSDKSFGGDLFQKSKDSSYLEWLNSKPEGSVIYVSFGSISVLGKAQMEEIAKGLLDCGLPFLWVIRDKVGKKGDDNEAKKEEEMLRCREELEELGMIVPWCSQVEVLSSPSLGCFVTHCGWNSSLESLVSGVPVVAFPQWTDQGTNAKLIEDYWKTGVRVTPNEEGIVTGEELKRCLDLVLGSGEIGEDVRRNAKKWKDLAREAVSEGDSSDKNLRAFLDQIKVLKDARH
Procedure: Substrates analyzed are indicated.
(§1) Reactions were performed at 30° C. for 60 minutes and terminated by addition of 10 μL of 10% TCA (v/v). Two microliters of the reaction products were used for analysis and identification by LC-UV-MS. All assay series were carried out at least in triplicate.
The analytical column was a Zorbax Extend-C18 Rapid Resolution HT column (2.1×50.0 mm, 1.8 μm, Agilent Technologies, Waldbronn, Germany). The gradient elution mobile phase consisted of H2O with 0.1% (v/v) formic acid (eluent A) and acetonitrile containing 0.1% (v/v) formic acid (eluent B). The column was equilibrated with 10% B for 1.5 minutes. […] The flow rate of the mobile phase was 0.3 ml/min and the column oven temperature was 40° C. Eluting compounds were subjected to a dual-sprayer orthogonal ESI source, with one sprayer for analytical flow and one for the reference compound (Agilent Technologies, Santa Clara, USA). The ESI source was operated in negative mode with the following settings: gas temp of 300° C. with a flow of 8 L/min and nebulizer set to 35 psig. VCap set to 3000 V, the fragmentor to −140 V and the skimmer to 65 V. Scan mode of the mass detector was applied (100-1700 m/z) with a rate of 1 spectra/sec. The [M-H] ions of target compounds were detected using the ‘find compound by formula’ function and analyzed by Masshunter qualitative and quantitative analysis software version B.07.00 (Agilent technologies). Compounds were identified by comparison of exact mass and retention time to purchased standards.

[2] = biological target: MdPGT1 (Malus domestica, UniProt B3TKC8); settings: Jugde et al. (2008)
[3] = biological target: T1, MdPh-4′-OGT; assay: Kinetic parameters of His-tag purified recombinant MdPh-4′-OGT (standard glucosyltransferase enzyme assay, LC-MS); assay type: biochemical, Malus x domestica
Procedure: as §1
The UPLC-MS analysis was carried out on an Agilent 1290 Infinity series liquid chromatograph coupled with an Agilent 1290 Infinity DAD and Agilent 6224 Accurate Mass Time of Flight mass spectrometer (MS) (Agilent Technologies, Santa Clara, USA). The analytical column was a Zorbax Extend-C18 Rapid Resolution HT column (2.1×50.0 mm, 1.8 μm, Agilent Technologies, Waldbronn, Germany). The gradient elution mobile phase consisted of H2O with 0.1% (v/v) formic acid (eluent A) and acetonitrile containing 0.1% (v/v) formic acid (eluent B). The column was equilibrated with 10% B for 1.5 minutes. Eluent B was then increased to 95% till 12 minutes, and restored to 10% by 15 minutes. The flow rate of the mobile phase was 0.3 ml/min and the column oven temperature was 40° C. Eluting compounds were subjected to a dual-sprayer orthogonal ESI source, with one sprayer for analytical flow and one for the reference compound (Agilent Technologies, Santa Clara, USA). The ESI source was operated in negative mode with the following settings: gas temp of 300° C. with a flow of 8 L/min and nebulizer set to 35 psig. VCap set to 3000 V, the fragmentor to −140 V and the skimmer to 65 V. Scan mode of the mass detector was applied (100-1700 m/z) with a rate of 1 spectra/sec. The [M-H] ions of target compounds were detected using the ‘find compound by formula’ function and analyzed by Masshunter qualitative and quantitative analysis software version B.07.00 (Agilent technologies). Compounds were identified by comparison of exact mass and retention time to purchased standards.

[4] = tested on: Malus Ph-2′-OGT; assay: Km for phloretin of Malus Ph-2′-OGT (literature) compared with MdPh-4′-OGT; assay type: biochemical; settings: Gosch C. et al. (2010)
[5] = biological target: T1, MdPh-4′-OGT; assay: pH and temperature optima of MdPh-4′-OGT activity with phloretin and UDP-glucose; assay type: biochemical, Malus x domestica
Procedure: as §1
All data included represent an average of at least three independent experiments. Determination of the pH optima within the range of 4.0-10.0 by mixing the stock buffer of 0.5 M citric acid and 1 M dibasic sodium phosphate solutions (for pH 4.0-7.0) and Tris-HCl (for pH 8.0-10.0), and the temperature optima within the range of 20° C.-45° C.

## O=c1c(O)c(-c2ccc(O)c(O)c2)oc2cc(O)cc(O)c12 [quercetin]
[1]
  Activity / product formation with the compound as acceptor substrate: production of three different products

## O=C(O)/C=C/c1ccc(O)c(O)c1 [caffeic acid]
[1]
  Activity / product formation with the compound as acceptor substrate: no products were detected

## O=C(CCc1ccc(O)cc1)c1c(O)cc(O[C@@H]2O[C@H](CO)[C@@H](O)[C@H](O)[C@H]2O)cc1O [trilobatin, 1-Propanone, 1-(4-(beta-D-glucopyranosyloxy)-2,6-dihydroxyphenyl)-3-(4-hydroxyphenyl)]
[1]
  Activity / product formation with the compound as acceptor substrate: production of the corresponding di-O-glucosides

## O=C(O)/C=C/c1ccc(O)cc1 [4-coumaric acid]
[1]
  Activity / product formation with the compound as acceptor substrate: no products were detected

## O=C(/C=C/c1ccc(O)c(O)c1)c1ccc(O)cc1O [butein]
[1]
  Activity / product formation with the compound as acceptor substrate: production of the corresponding O-glucoside

## O=C(CCc1ccc(O)cc1)c1c(O)cc(O)cc1O [Phloretin, 3-(4-hydroxyphenyl)-1-(2,4,6-trihydroxyphenyl)-1-propanone]
[1]
  Activity / product formation with the compound as acceptor substrate: highest activity
[2]
  Km for phloretin, times lower than with MdPh-4′-OGT: 41 times
[3]; named substrate varied, co-substrate fixed
  kcat: 9.94 ± 1.23 s^−1 (×10^−2)
[3]; named substrate varied, co-substrate fixed, 500 ng enzyme
  Vmax: 1.86 ± 0.30 pkat μg^−1 protein
[3]; named substrate varied, co-substrate fixed, 500 ng enzyme, listed as phloretin
  Vmax: 1.86±0.30 pkat μg^−1 protein
[3]; named substrate varied: phloretin 0.5-500 μM at 2 mM UDP-glucose, UDP-glucose 0.01-50 mM at 30 μM phloretin, 500 ng enzyme
  Km: 26.1 ± 6.97 µM
[4]
  Km for phloretin, times higher than with MdPh-4′-OGT: 3 times

## O=C1C[C@@H](c2ccc(O)cc2)Oc2cc(O)cc(O)c21 [naringenin]
[1]
  Activity / product formation with the compound as acceptor substrate: formation of the corresponding naringenin-7-O-glucoside

B1: MdPh-4′-OGT: His-tagged recombinant apple glycosyltransferase that glycosylates phloretin with UDP-glucose to form trilobatin (protein, listed as Malus domestica)
chain: MVQHRFLLVTFPAQGHINPSLQFAKRLINTTGAHVTYVTSLSAHRRIGNGSIPDGLTYAPFSDGYDDGFKPGDNVDDYMSELRRRGVQAITDLVVASANEGHPYTCLVYSLLLPWSAGMAHELHLPSVLLWIQPATVFDIYYYYFNGYKDLIRDNTSSGTNNVLPCSIELPGLPLSFTSRDLPSFMVDTNPYNFALPLFQEQMELLERETNPTILVNTFDALEPEALKAIDKYNLIGVGPLIPSAFLDGKDPSDKSFGGDLFQKSKDSSYLEWLNSKPEGSVIYVSFGSISVLGKAQMEEIAKGLLDCGLPFLWVIRDKVGKKGDDNEAKKEEEMLRCREELEELGMIVPWCSQVEVLSSPSLGCFVTHCGWNSSLESLVSGVPVVAFPQWTDQGTNAKLIEDYWKTGVRVTPNEEGIVTGEELKRCLDLVLGSGEIGEDVRRNAKKWKDLAREAVSEGDSSDKNLRAFLDQIKVLKDARH
modifications: His tag
notes: His-tagged recombinant apple glycosyltransferase that glycosylates phloretin with UDP-glucose to form trilobatin
[5]; calculated from temperature dependence
  Activation energy: 4.369 kcal/mol
[5]; pH 6.0
  Activity remaining at pH 6.0: 17%
[5]; pH 10.0
  Activity remaining at pH 10.0: less than 5%
[5]; pH range 4.0-10.0 tested
  pH of maximum activity: 9.0 pH
  pH range of significant activity: 7.0-9.0 pH
